Source: patent US8883745B2, “C—glycolipids with enhanced Th-1 profile” (New York University, priority 2006, dated 2014)

What was measured:
Format in all cases: in vivo
[1] = test system: IL-4; assay: IL-4 levels in sera upon i.v. glycolipid administration to C57BL/6 mice (ELISA); set-up: unit not given here
Summary of the method: (§1)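 Female C57BL/6 or BALB/c mice (5–6 weeks old) received 1 μg glycolipid i.v. in PBS. Sera were collected at 0, 2, 6, 12, 24, 48 and 72 h post-dose. Cytokine levels were quantified by sandwich ELISA on 1:10-diluted sera, with A450 read against known standards.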

[2] = test system: IFN-γ; assay: IFN-γ levels in sera upon i.v. glycolipid administration to BALB/c mice (ELISA); set-up: IFN-γ levels, test 1 / IFN-γ levels, test 2 / IFN-γ levels, average / IFN-γ levels, Total: unit not given here; conditions: BALB/c
Summary of the method: as §1

[3] = test system: IFN-γ; assay: IFN-γ levels in sera upon i.v. glycolipid administration to C57BL/6 mice (ELISA); set-up: IFN-γ levels, test 1 / IFN-γ levels, test 2 / IFN-γ levels, average / IFN-γ levels, Total / IFN-γ (B6): unit not given here
Summary of the method: as §1

[4] = test system: IL-12; assay: IL-12 levels in sera upon i.v. glycolipid administration to C57BL/6 mice (ELISA); set-up: IL-12 levels, test 1 / IL-12 levels, test 2 / IL-12 levels, average / IL-12 levels, Total: unit not given here
Summary of the method: as §1

[5] = C57BL/6, ratio calculated from Tables 1-6
[6] = C57BL/6, serum, total over hours 0-72

Question: Which results are given for CCCCCCCCCCCCCC[C@@H](O)[C@@H](O)[C@H](CC[C@H]1O[C@H](CO)[C@H](O)[C@H](O)[C@H]1O)NC(=O)CCCCCCCCCCCCCCCCCCCOCCCCCC [A-4]?
Answer: IL-4 level, average ([1]; hour 0): 46; IL-4 level, test 1 ([1]; hour 0): 46; IL-4 level, test 2 ([1]; hour 0): 46; IL-4 level, average ([1]; hour 2): 696.5; IL-4 level, test 1 ([1]; hour 2): 627; IL-4 level, test 2 ([1]; hour 2): 766; IL-4 level, average ([1]; hour 6): 126; IL-4 level, test 1 ([1]; hour 6): 83; IL-4 level, test 2 ([1]; hour 6): 169; IL-4 level, average ([1]; hour 12): 43.5; IL-4 level, test 1 ([1]; hour 12): 40; IL-4 level, test 2 ([1]; hour 12): 47; IL-4 level, average ([1]; hour 24): 29.5; IL-4 level, test 1 ([1]; hour 24): 29; IL-4 level, test 2 ([1]; hour 24): 30; IL-4 level, average ([1]; hour 48): 28.5; IL-4 level, test 1 ([1]; hour 48): 39; IL-4 level, test 2 ([1]; hour 48): 18; IL-4 level, average ([1]; hour 72): 41.5; IL-4 level, test 1 ([1]; hour 72): 54; IL-4 level, test 2 ([1]; hour 72): 29; IL-4 level, Total ([1]; total over hours 0-72): 1014; IFN-γ/IL-4 (BALB/c) ([2]; ratio calculated from Tables 1-6): 44; IFN-γ levels, average ([2]; serum, hour 0): 27; IFN-γ levels, test 1 ([2]; serum, hour 0): 27; IFN-γ levels, test 2 ([2]; serum, hour 0): 27; IFN-γ levels, average ([2]; serum, hour 2): 142.5; IFN-γ levels, test 1 ([2]; serum, hour 2): 140; IFN-γ levels, test 2 ([2]; serum, hour 2): 145; IFN-γ levels, average ([2]; serum, hour 6): 1742; IFN-γ levels, test 1 ([2]; serum, hour 6): 1778; IFN-γ levels, test 2 ([2]; serum, hour 6): 1706; IFN-γ levels, average ([2]; serum, hour 12): 6513.5; IFN-γ levels, test 1 ([2]; serum, hour 12): 4988; IFN-γ levels, test 2 ([2]; serum, hour 12): 8039; IFN-γ levels, average ([2]; serum, hour 24): 14100; IFN-γ levels, test 1 ([2]; serum, hour 24): 14000; IFN-γ levels, test 2 ([2]; serum, hour 24): 14200; IFN-γ levels, average ([2]; serum, hour 48): 929.5; IFN-γ levels, test 1 ([2]; serum, hour 48): 752; IFN-γ levels, test 2 ([2]; serum, hour 48): 1107; IFN-γ levels, average ([2]; serum, hour 72): 56.5; IFN-γ levels, test 1 ([2]; serum, hour 72): 47; IFN-γ levels, test 2 ([2]; serum, hour 72): 66; IFN-γ levels, Total ([2]; serum, total over hours 0-72): 22676; IFN-γ/IL-4 (B6) [3, 5]: 10; IFN-γ levels, average ([3]; C57BL/6, serum, hour 0): 31; IFN-γ levels, test 1 ([3]; C57BL/6, serum, hour 0): 31; IFN-γ levels, test 2 ([3]; C57BL/6, serum, hour 0): 31; IFN-γ levels, average ([3]; C57BL/6, serum, hour 2): 308.5; IFN-γ levels, test 1 ([3]; C57BL/6, serum, hour 2): 255; IFN-γ levels, test 2 ([3]; C57BL/6, serum, hour 2): 362; IFN-γ levels, average ([3]; C57BL/6, serum, hour 6): 1329; IFN-γ levels, test 1 ([3]; C57BL/6, serum, hour 6): 1381; IFN-γ levels, test 2 ([3]; C57BL/6, serum, hour 6): 1277; IFN-γ levels, average ([3]; C57BL/6, serum, hour 12): 2335.5; IFN-γ levels, test 1 ([3]; C57BL/6, serum, hour 12): 2466; IFN-γ levels, test 2 ([3]; C57BL/6, serum, hour 12): 2205; IFN-γ levels, average ([3]; C57BL/6, serum, hour 24): 5563.5; IFN-γ levels, test 1 ([3]; C57BL/6, serum, hour 24): 5291; IFN-γ levels, test 2 ([3]; C57BL/6, serum, hour 24): 5836; IFN-γ levels, average ([3]; C57BL/6, serum, hour 48): 742; IFN-γ levels, test 1 ([3]; C57BL/6, serum, hour 48): 581; IFN-γ levels, test 2 ([3]; C57BL/6, serum, hour 48): 903; IFN-γ levels, average ([3]; C57BL/6, serum, hour 72): 220.5; IFN-γ levels, test 1 ([3]; C57BL/6, serum, hour 72): 245; IFN-γ levels, test 2 ([3]; C57BL/6, serum, hour 72): 196; IFN-γ levels, Total [3, 6]: 10532; IL-12/IL-4 (B6) [4, 5]: 1.3; IL-12 levels, average ([4]; C57BL/6, serum, hour 0): 5; IL-12 levels, test 1 ([4]; C57BL/6, serum, hour 0): 5; IL-12 levels, test 2 ([4]; C57BL/6, serum, hour 0): 5; IL-12 levels, average ([4]; C57BL/6, serum, hour 2): 458.5; IL-12 levels, test 1 ([4]; C57BL/6, serum, hour 2): 490; IL-12 levels, test 2 ([4]; C57BL/6, serum, hour 2): 427; IL-12 levels, average ([4]; C57BL/6, serum, hour 6): 685.5; IL-12 levels, test 1 ([4]; C57BL/6, serum, hour 6): 740; IL-12 levels, test 2 ([4]; C57BL/6, serum, hour 6): 631; IL-12 levels, average ([4]; C57BL/6, serum, hour 12): 124; IL-12 levels, test 1 ([4]; C57BL/6, serum, hour 12): 18; IL-12 levels, test 2 ([4]; C57BL/6, serum, hour 12): 230; IL-12 levels, average ([4]; C57BL/6, serum, hour 24): 0; IL-12 levels, test 1 ([4]; C57BL/6, serum, hour 24): 0; IL-12 levels, test 2 ([4]; C57BL/6, serum, hour 24): 0; IL-12 levels, average ([4]; C57BL/6, serum, hour 48): 0; IL-12 levels, test 1 ([4]; C57BL/6, serum, hour 48): 0; IL-12 levels, test 2 ([4]; C57BL/6, serum, hour 48): 0; IL-12 levels, average ([4]; C57BL/6, serum, hour 72): 0; IL-12 levels, test 1 ([4]; C57BL/6, serum, hour 72): 0; IL-12 levels, test 2 ([4]; C57BL/6, serum, hour 72): 0; IL-12 levels, Total [4, 6]: 1274
